According to patent publication US12122787B2, “Fused pyridone compound, and preparation method therefor and use thereof” (SHANGHAI JEMINCARE PHARMACEUTICALS CO., LTD, priority 2019, dated 2024):
Like-named read-outs stand apart in the source and are kept apart here.

How the values were obtained:
Format in all cases: cell-based
[1] = test system: NCI-H358 cells expressing KRAS-G12C; assay: Growth inhibition of tumor cell line expressing KRAS-G12C (Cell Titer Glo), NCI-H358
Description: (§1) The ability of the compounds of the present disclosure to inhibit the growth of cells expressing KRAS-G12C was evaluated by measuring the cell viability and calculating the GI50 values.
(§2) The tumor cell line NCI-H358 (ATCC catalogue number CRL-5807) expressing KRAS-G12C was cultured in RPMI medium supplemented with 10% fetal bovine serum and penicillin/streptomycin, and the tumor cell line MIA PaCa2 (ATCC CRL-1420) expressing KRAS-G12C was cultured in DMEM medium supplemented with 10% fetal bovine serum, 2.5% horse serum, and penicillin/streptomycin.
(§3) Cells NCI-H358 and MIA-Paca2 were inoculated into black transparent bottom 384-well plate (PerkinElmer catalogue number 6007460) with cell density of 1000 and 800 respectively, and the cells were allowed to adhere to the wall overnight (8-12 hours). After the cells adhered to the wall, the experimental group was added with the compound of the present disclosure diluted 5 times the concentration of the working solution (final concentration containing 0.1% dimethyl sulfoxide, i.e. DMSO); the control group was added with the same dilution as the experimental group (final concentration containing 0.1% DMSO). After 72 hours, Cell Titer Glo reagent (Promega catalogue number G7572) was used to detect ATP content according to the instruction method to determine the amount of cell proliferation. The brief operation steps were as follows: the cell plate was taken out and kept at normal temperature for equilibrium for 30 minutes; Cell Titer Glo reagent with the same volume as the culture was added; the culture plate was placed on a shaker for shaking and cracking for 2 minutes; the culture plate was left to stand at room temperature for 10 minutes; then the light signal value was read by microplate reader EnVision (PerkinElmer).
(§4) Data from all experimental groups were used to calculate the respective percent inhibition using the DMSO group, and the GI50 was calculated using the data processing software GraphPad to analyze the inhibition rates produced by the 9 compound dose concentrations diluted at ⅓-fold ratio.

[2] = test system: MIA PaCa2 cells expressing KRAS-G12C; assay: Growth inhibition of tumor cell line expressing KRAS-G12C (Cell Titer Glo), MIA PaCa2
Description: as §1, §2, §3, §4

[3] = test system: phosphorylated ERK (Thr202/Tyr204) in NCI-H358 cells expressing mutant RAS(G12C); assay: Inhibition of RAS-mediated signal transduction: phosphorylated ERK ELISA in NCI-H358 cells
Description: The cells were treated with or without the compound of the present disclosure (dimethyl sulfoxide, DMSO), and the final concentration of DMSO was guaranteed to be 0.5%. After 2 hours of treatment, the medium was removed and 4% paraformaldehyde (Beyotime catalog number E672002-0100) was added and left to stand for 20 minutes. Cells were washed with PBS after fixation and incubated with precooled methanol for 10 min to permeabilize the cell membrane.
The level of phosphorylated ERK was detected using an enzyme linked immunosorbent assay (ELISA) method. […] The plates were washed 5 times with PBS containing 0.05% Tween 20. […] The reaction was stopped by adding 1 mol/L H2SO4, and the OD value was read at 450 nm by EnVision (PerkinElmer).
The total number of cells per well was detected by Janus Green B staining method. After detecting the level of phosphorylated ERK, the 96-well plate was washed with PBS until colorless, and 0.1% Janus Green B (Abcam catalogue number ab111622) was added to incubate for 10 minutes. After the 96-well plate was washed with double distilled water, 0.1 mol/L HCl was added, then the mixture was shaked and incubated for 10 minutes. The OD value was read at 595 nm by EnVision (PerkinElmer).
The signal of pERK (Thr202/Tyr204) was normalized by the signal value of Janus Green B, and the inhibition percentage after drug treatment relative to DMSO reference was calculated. The percentage values were fitted by a four-parameter dose-response curve and generated IC50 values.

[4] = Homo sapiens, MIA PaCa-2, 72 h, MIA-Paca2, 72 hours
[5] = Homo sapiens, NCI-H358, 2 h, NCI-H358 cells, 2 hours of treatment, pERK normalized by Janus Green B, read-out: p-ERK IC50 (NCI H358)
[6] = NCI-H358 cells, 2 hours of treatment, pERK normalized by Janus Green B, read-out: p-ERK IC50 (NCI H358)

| Compound | GI50 ([1]; Homo sapiens, NCI-H358, 72 h) [nM] | GI50 [2, 4] [nM] | IC50 [3, 5] [µM] | GI50 ([1]; NCI-H358, 72 hours) [nM] | GI50 ([2]; MIA-Paca2, 72 hours) [nM] | IC50 [3, 6] [µM] | further results |
| --- | --- | --- | --- | --- | --- | --- | --- |
| C=CC(=O)N1C[C@@H]2C(=O)N(C)c3c(c4cc(F)c(-c5c(O)cccc5F)nc4n(-c4ccccc4C(C)C)c3=O)N2C[C@H]1C (atropisomer, axis not shown) [Compound 7B] | 148 | 328 | 0.098 |  |  |  |  |
| C=CC(=O)N1C[C@@H]2C(=O)N(CCN(C)C)c3c(c4cc(Cl)c(-c5c(F)cccc5OC)c(F)c4n(-c4c(C)ccnc4C(C)C)c3=O)N2C[C@H]1C (atropisomer, axis not shown) [Compound 27D] |  |  |  | 85 | 117 | 0.124 |  |
| C=CC(=O)N1C[C@@H]2COc3c(c4cc(F)c(-c5c(O)cccc5F)c(F)c4n(-c4c(C)ccnc4C(C)C)c3=O)N2C[C@H]1C [Compound 3B] |  |  |  | 8 | 39 | 0.008 |  |
| C=CC(=O)N1C[C@@H]2C(=O)N(C)c3c(c4cc(Cl)c(-c5ccc(F)c6nc(N)sc56)nc4n(-c4c(C)ccnc4C(C)C)c3=O)N2C[C@H]1C (single isomer, unassigned) [Compound 56B] |  |  |  | 12 | 25 | 0.011 |  |
| C=CC(=O)N1C[C@@H]2C(=O)N(C)c3c(c4cc(Cl)c(-c5ccc(F)c6nc(N)sc56)nc4n(-c4c(C)ccnc4C(C)C)c3=O)N2C[C@H]1C (single isomer, unassigned) [Compound 56A] |  |  |  | 223 | 448 | 0.183 |  |
| C=CC(=O)N1C[C@@H]2COc3c(c4cc(F)c(-c5c(O)cccc5F)nc4n(-c4ccccc4C(C)C)c3=O)N2C[C@H]1C [Compound 2A] | 143 | 1020 | 0.066 |  |  |  |  |
| C=CC(=O)N1C[C@@H]2C(=O)N(C)c3c(c4cc(F)c(-c5c(O)cccc5F)c(F)c4n(-c4c(C(C)C)ncnc4C(C)C)c3=O)N2C[C@H]1C [Compound 20B] |  |  |  | 413 | 1600 | 0.264 |  |
| C=CC(=O)N1C[C@@H]2C(=O)N(C)c3c(c4cc(Cl)c(-c5c(O)cccc5F)c(F)c4n(-c4c(C)ccnc4C(C)C)c3=O)N2C[C@H]1C [Compound 23A-1] | 104 | 281 | 0.111 |  |  |  |  |
| C=CC(=O)N1C[C@@H]2C(=O)N(C)c3c(c4cc(F)c(-c5c(C)ccc6[nH]ncc56)c(F)c4n(-c4c(C)ccnc4C(C)C)c3=O)N2C[C@H]1C [Compound 32A] | 442 | 604 | 0.274 |  |  |  |  |
| C=CC(=O)N1C[C@@H]2CN(C)c3c(c4cc(Cl)c(-c5c(O)cccc5F)nc4n(-c4c(C)ccnc4C(C)C)c3=O)N2C[C@H]1C [Compound 8] | 22 | 37 | 0.024 |  |  |  |  |
| C=CC(=O)N1CC2C(=O)Nc3c(c4cc(F)c(-c5c(O)cccc5F)c(F)c4n(-c4c(C)ccnc4C(C)C)c3=O)N2CC1C (single isomer, unassigned) [Compound 22A-2] |  |  |  | 42 | 119 | 0.054 |  |
| C=CC(=O)N1C[C@@H]2C(=O)N(C)c3c(c4cc(F)c(-c5c(O)cccc5F)c(F)c4n(-c4c(C)ccnc4C(C)C)c3=O)N2C[C@H]1C [Compound 21A-2] |  |  |  | 10 | 34 | 0.015 |  |
| C=CC(=O)N1CC2C(=O)N(CCN(C)C)c3c(c4cc(F)c(-c5c(O)cccc5F)c(F)c4n(-c4c(C)ccnc4C(C)C)c3=O)N2CC1C (stereo not drawn) [Compound 24C] |  |  |  | 11 | 23 | 0.012 |  |
| C=CC(=O)N1C[C@@H]2C(=O)N(CCCO)c3c(c4cc(F)c(-c5c(O)cccc5F)c(F)c4n(-c4c(C)ccnc4C(C)C)c3=O)N2C[C@H]1C [Compound 41A] | 530 | 2240 | 0.942 |  |  |  |  |
| C=CC(=O)N1C[C@@H]2C(=O)N(CCN(C)C)c3c(c4cc(Cl)c(-c5c(O)cccc5F)c(F)c4n(-c4c(C)ccnc4C(C)C)c3=O)N2C[C@H]1C (atropisomer, axis not shown) [Compound 26A] | 152 | 724 | 0.203 |  |  |  |  |
| C=CC(=O)N1CC2C(=O)N(CCN(C)C)c3c(c4cc(F)c(-c5c(O)cccc5F)c(F)c4n(-c4c(C)ccnc4C(C)C)c3=O)N2CC1C (stereo not drawn) [Compound 24D] |  |  |  | 232 | 407 | 0.246 |  |
| C=CC(=O)N1C[C@@H]2CN(C)c3c(c4cc(F)c(-c5c(O)cccc5F)c(F)c4n(-c4c(C)ccnc4C(C)C)c3=O)N2C[C@H]1C (single isomer, unassigned) [Compound 16A-2] |  |  |  | 74 | 146 | 0.084 |  |
| C=CC(=O)N1C[C@@H]2COc3c(c4cc(F)c(-c5c(O)cccc5F)c(F)c4n(-c4c(C(C)C)ncnc4C(C)C)c3=O)N2C[C@H]1C [Compound 19A] | 8 | 14 | 0.008 |  |  |  |  |
| C=CC(=O)N1C[C@@H]2C(=O)N(CCN(C)C)c3c(c4cc(Cl)c(-c5c(F)cccc5OC)c(F)c4n(-c4c(C)ccnc4C(C)C)c3=O)N2C[C@H]1C (atropisomer, axis not shown) [Compound 27A] | 147 | 152 | 0.087 |  |  |  |  |
| C=CC(=O)N1C[C@@H]2COc3c(c4cc(Cl)c(-c5c(O)cccc5F)c(F)c4n(-c4c(C)ccnc4C(C)C)c3=O)N2C[C@H]1C [Compound 18A-1] |  |  |  | 2 | 10 | 0.004 |  |
| C=CC(=O)N1CCN(c2ncnc3c(F)c(-c4c(O)cccc4F)c(Cl)cc23)CC1 [ARS-1620] |  |  |  |  |  |  | GI50 ([1]; Homo sapiens, NCI-H358, 72 hours): 510 nM; GI50 ([2]; Homo sapiens, MIA PaCa-2, MIA-Paca2, 72 hours): 1210 nM; IC50 ([3]; Homo sapiens, NCI-H358, 2 h, read-out: p-ERK IC50 (NCI H358, μM)): 0.325 µM |
| C=CC(=O)N1C[C@@H]2COc3c(c4cc(F)c(-c5c(C)ccc6[nH]ncc56)nc4n(-c4ccccc4C(C)C)c3=O)N2C[C@H]1C (single isomer, unassigned) [Compound 13A] | 59 | 265 |  |  |  | 0.04 |  |
| C=CC(=O)N1CC2COc3c(c4cc(Cl)c(-c5c(O)cccc5F)c(F)c4n(-c4c(C)ccnc4C(C)C)c3=O)N2CC1C (single isomer, unassigned) [Compound 18B-2] |  |  |  | 149 | 172 | 0.102 |  |
| C=CC(=O)N1C[C@@H]2CN(CCC(C)O)c3c(c4cc(F)c(-c5c(O)cccc5F)c(F)c4n(-c4c(C)ccnc4C(C)C)c3=O)N2C[C@H]1C (stereo partly drawn) [Compound 37A] | 66 | 392 | 0.07 |  |  |  |  |
| C=CC(=O)N1C[C@@H]2COc3c(c4cc(Cl)c(-c5c(O)cccc5F)c(F)c4n(-c4c(C)ccnc4C(C)C)c3=O)N2C[C@H]1C [Compound 18B-1] |  |  |  | 21 | 66 | 0.036 |  |
| C=CC(=O)N1C[C@@H]2COc3c(c4cc(Cl)c(-c5c(O)cccc5F)c(F)c4n(-c4c(C)ccnc4C(C)C)c3=O)N2C[C@H]1C (atropisomer, axis not shown) [Compound 18A-2] |  |  |  | 12 | 24 | 0.013 |  |
| C=CC(=O)N1C[C@@H]2C(=O)N(C)c3c(c4cc(Cl)c(-c5c(O)cccc5F)c(F)c4n(-c4c(C)ccnc4C(C)C)c3=O)N2C[C@H]1C [Compound 23A-2] |  |  |  | 3 | 14 | 0.003 |  |
| C=CC(=O)N1C[C@@H]2CN(CCCO)c3c(c4cc(F)c(-c5c(O)cccc5F)c(F)c4n(-c4c(C)ccnc4C(C)C)c3=O)N2C[C@H]1C (atropisomer, axis not shown) [Compound 35A-1] |  |  |  | 163 | 2600 | 0.313 |  |
| C=CC(=O)N1C[C@@H]2CN(CC(=O)OC)c3c(c4cc(F)c(-c5c(O)cccc5F)c(F)c4n(-c4c(C)ccnc4C(C)C)c3=O)N2C[C@H]1C [Compound 38B] | 77 | 535 |  |  |  | 0.064 |  |
